Assay: not given

SMILES	logP
O=c1[nH]c2ccccc2n1CCCN1CCN(C(c2ccccc2)c2ccccc2)CC1	2.73

Assay: method code SF, from DOI: 10.1063/1.555833

SMILES	logP
COc1ccc(-c2c(C)noc2N)cc1OC	1.53
CCc1n[nH]c(N)c1-c1ccccc1	1.96
CC(=O)n1cc(C2=C(O)C(C)(C)CCC2=O)c2ccccc21	2.16
Nc1[nH]nc(Cc2ccccc2)c1-c1ccccc1	2.39
Cc1cc2c(c3c1[nH]c1ccccc13)C(=O)CC(C)(C)C2	3.58
COc1ccc(-c2c(C)n[nH]c2N)cc1OC	1.33
COc1ccc(-c2cnoc2N)cc1OC	0.48
Nc1c(-c2ccccc2)cnn1-c1ccccc1	2.52
CCCCN1C(=O)c2ccc([N+](=O)[O-])cc2C1=O	2.26
CCc1nn(-c2ccccc2)c(N)c1-c1ccc(OC)c(OC)c1	2.82
COc1ccc(-c2cn[nH]c2N)cc1OC	0.85
COc1ccc(Cc2nc3ccccc3c(=O)n2N)cc1OC	1.94
Cc1nn(-c2ccccc2)c(N)c1-c1ccccc1	2.92
O=C(NCCCCCCNC(=O)c1ccccc1O)c1ccccc1O	2.85
O=C1Cc2ccccc2C(c2ccc([N+](=O)[O-])cc2)N1 (configuration not stated)	2.48
CCc1n[nH]c(N)c1-c1ccc(OC)c(OC)c1	1.37
